Source: ChEMBL document CHEMBL1135025, “Synthesis of iodinated biochemical tools related to the 2-azetidinone class of cholesterol absorption inhibitors” (2002)
Calls of active or inactive are those of the source. The rule behind the calls is not given here.

Key:
[1] = test system: Cricetinae gen. sp.; experiment: Effective dose required to produe activity in cholesterol hamster assay was determined; na means not applicable; assay type: functional, organism-based; settings: Cricetulus griseus
[2] = test system: Cricetinae gen. sp.; experiment: In vivo activity in a cholesterol-fed hamster assay was determined at 1 mg/kg/day; assay type: functional, Cricetulus griseus
[3] = test system: Cricetinae gen. sp.; experiment: Effective dose required to produe activity in cholesterol hamster assay was determined; assay type: functional, Cricetulus griseus
[4] = test system: Cricetinae gen. sp.; experiment: In vivo activity in a cholesterol-fed hamster assay was determined at 50 mg/kg/day; assay type: functional, Cricetulus griseus
[5] = test system: Cricetinae gen. sp.; experiment: In vivo activity in a cholesterol-fed hamster assay was determined at 10 mg/kg/day; assay type: functional, Cricetulus griseus

Row | Compound | ED50 [1] | Reduction [2] | ED50 [3] | Reduction [4] | Reduction [5]
1 | O=C1[C@H](CC[C@H](O)c2ccc(I)cc2)[C@@H](c2ccc(O)cc2)N1c1ccc(F)cc1 | inactive | -54% |  |  | 
2 | O=C1[C@H](CC[C@H](O)c2ccc(F)cc2)[C@@H](c2ccc(O)cc2)N1c1ccc(I)cc1 |  | -63% | 0.49 mg/kg/day |  | 
3 | COc1ccc([C@@H]2[C@@H](CCCc3ccccc3)C(=O)N2c2ccc(I)cc2)cc1 (racemic) | inactive |  |  | -82% | 
4 | COc1ccc([C@@H]2[C@@H](CCCc3ccc(I)cc3)C(=O)N2c2ccc(OC)cc2)cc1 (racemic) | inactive |  |  | -56% | 
5 | O=C(O)[C@H]1OC(Oc2ccc([C@@H]3[C@@H](CC[C@H](O)c4ccc(F)cc4)C(=O)N3c3ccc(I)cc3)cc2)C(O)[C@@H](O)[C@@H]1O (single isomer, unassigned) | inactive | -54% |  |  | 
6 | O=C1[C@H](CC[C@H](O)c2ccc(F)cc2)[C@@H](c2ccc(O)cc2)N1c1ccc(F)cc1 [EZETIMIBE] |  | -100% | 0.04 mg/kg/day |  | 
7 | COc1ccc([C@@H]2[C@@H](CCCc3ccccc3)C(=O)N2c2ccc(OC)cc2)cc1 [SCH-48461] |  |  | 2.2 mg/kg/day |  | -93%
